Source: USRE48461E1, “Modulation of androgen receptor expression” (Ionis Pharmaceuticals, Inc., priority 2012, dated 2021)
Oligonucleotides are written 5' to 3', each unit as a sugar letter and its base; * is a phosphorothioate linkage, no mark a phosphodiester; rarer units and linkages stand in square brackets, end groups in braces. Plain capitals give the bases only. e = 2'-O-(2-methoxyethyl) (MOE); k = constrained ethyl (cEt); [5mC] = 5-methylcytosine; d = 2'-deoxy (DNA)

What was measured:
AR mRNA [1] = test: Antisense inhibition of human AR in HuVEC cells, single concentration (electroporation, qRT-PCR RTS3559); type: cell-based; conditions: ~24 h
Method: Antisense oligonucleotides were designed targeting an AR nucleic acid and were tested for their effects on AR mRNA in vitro. The antisense oligonucleotides were tested in a series of experiments that had similar culture conditions. […] Human primer probe set RTS3559 (forward sequence [NT], designated herein as SEQ ID NO: 9; reverse sequence [NT], designated herein as SEQ ID NO: 10; probe sequence [NT], designated herein as SEQ ID NO: 11) was used to measure mRNA levels. AR mRNA levels were adjusted according to total RNA content, as measured by RIBOGREEN®. […] A total of 155 oligonucleotides were tested. Additional antisense oligonucleotides were designed targeting an AR nucleic acid and were tested for their effects on AR mRNA in vitro. […] Human primer probe set RTS3559 was used to measure mRNA levels. AR mRNA levels were adjusted according to total RNA content, as measured by RIBOGREEN®. […] A total of 82 oligonucleotides were tested. Additional antisense oligonucleotides were designed targeting an AR nucleic acid and were tested for their effects on AR mRNA in vitro. […] Human primer probe set RTS3559 was used to measure mRNA levels. AR mRNA levels were adjusted according to total RNA content, as measured by RIBOGREEN®. […] A total of 40 oligonucleotides were tested. Additional antisense oligonucleotides were designed targeting an AR nucleic acid and were tested for their effects on AR mRNA in vitro. […] Human primer probe set RTS3559 was used to measure mRNA levels. AR mRNA levels were adjusted according to total RNA content, as measured by RIBOGREEN®. […] A total of 75 oligonucleotides were tested. Additional antisense oligonucleotides were designed targeting an AR nucleic acid and were tested for their effects on AR mRNA in vitro. […] Human primer probe set RTS3559 was used to measure mRNA levels. AR mRNA levels were adjusted according to total RNA content, as measured by RIBOGREEN®. […] A total of 616 oligonucleotides were tested. Additional antisense oligonucleotides were designed targeting an AR nucleic acid and were tested for their effects on AR mRNA in vitro. […] Human primer probe set RTS3559 was used to measure mRNA levels. AR mRNA levels were adjusted according to total RNA content, as measured by RIBOGREEN®. […] A total of 385 oligonucleotides were tested.

AR mRNA [2] = test: Dose-dependent antisense inhibition of human AR in HuVEC cells (electroporation, qRT-PCR RTS3559, IC50); type: cell-based; conditions: HuVEC, ~16 h
Method: (§1) After a treatment period of approximately 16 hours, RNA was isolated from the cells and AR mRNA levels were measured by quantitative real-time PCR. Human AR primer probe set RTS3559 was used to measure mRNA levels. AR mRNA levels were adjusted according to total RNA content, as measured by RIBOGREEN®. […] The antisense oligonucleotides were tested in a series of experiments that had similar culture conditions.
as §1, §1, §1, §1
(§2) After a treatment period of approximately 16 hours, RNA was isolated from the cells and AR mRNA levels were measured by quantitative real-time PCR. Human AR primer probe set RTS3559 was used to measure mRNA levels. AR mRNA levels were adjusted according to total RNA content, as measured by RIBOGREEN®.
as §2

Substance | % inhibition (AR mRNA [1]; 250 nM ASO, Table 7) [%] | percent inhibition of AR (AR mRNA [2]; 31.25 nM, Table 8) [%] | percent inhibition of AR (AR mRNA [2]; 62.5 nM, Table 8) [%] | percent inhibition of AR (AR mRNA [2]; 125.0 nM, Table 8) [%] | percent inhibition of AR (AR mRNA [2]; 500.0 nM, Table 8) [%] | percent inhibition of AR (AR mRNA [2]; 1000.0 nM, Table 8) [%] | IC50 (AR mRNA [2]; Table 8) [nM] | % inhibition (AR mRNA [1]; 1,000 nM ASO, Table 13) [%] | percent inhibition of AR (AR mRNA [2]; 31.25 nM, Table 14) [%] | percent inhibition of AR (AR mRNA [2]; 62.5 nM, Table 14) [%] | percent inhibition of AR (AR mRNA [2]; 125.0 nM, Table 14) [%] | percent inhibition of AR (AR mRNA [2]; 500.0 nM, Table 14) [%] | percent inhibition of AR (AR mRNA [2]; 1000.0 nM, Table 14) [%] | IC50 (AR mRNA [2]; Table 14) [nM] | also measured
560137 (antisense TTGATTTAATGGTTGC; all C 5-methyl, all phosphorothioate, sugars by position not given here; further chemistry not fully specified) [compound 560137] | 66 | 35 | 39 | 64 | 89 | 94 | 80 | – | – | – | – | – | – | – | % inhibition (AR mRNA [1]; 500 nM ASO, Table 5): 95%; percent inhibition of AR (AR mRNA [2]; 31.25 nM, Table 6): 27%; percent inhibition of AR (AR mRNA [2]; 62.5 nM, Table 6): 49%; percent inhibition of AR (AR mRNA [2]; 125.0 nM, Table 6): 61%; percent inhibition of AR (AR mRNA [2]; 500.0 nM, Table 6): 91%; percent inhibition of AR (AR mRNA [2]; 1000.0 nM, Table 6): 96%; IC50 (AR mRNA [2]; Table 6): 100 nM
569215 (antisense kT*kG*kG*dT*dT*dG*dA*dT*dT*dT*dA*dA*kT*kG*kG*eT) [compound 569215] | – | – | – | – | – | – | – | 59 | 12 | 2 | 26 | 71 | 90 | 234 | –
569220 (antisense eA*kT*kG*kG*dT*dT*dG*dA*dT*dT*dT*dA*kA*kT*kG*eG) [compound 569220] | – | – | – | – | – | – | – | 58 | 11 | 29 | 34 | 59 | 78 | 275 | –
569222 (antisense eT*eT*kG*kA*kT*dT*dT*dA*dA*dT*dG*dG*dT*kT*kG*k[5mC]) [compound 569222] | 74 | 36 | 48 | 67 | 91 | 98 | 60 | – | – | – | – | – | – | – | –
569223 (antisense eG*eT*kT*kG*kA*dT*dT*dT*dA*dA*dT*dG*dG*kT*kT*kG) [compound 569223] | – | – | – | – | – | – | – | 59 | 21 | 20 | 30 | 73 | 87 | 191 | –
569228 (antisense eT*eT*kG*kA*kT*dT*dT*dA*dA*dT*dG*dG*kT*kT*kG*e[5mC]) [compound 569228] | 67 | 26 | 43 | 62 | 88 | 92 | 90 | – | – | – | – | – | – | – | percent inhibition of AR (AR mRNA [2]; 62.5 nM, Table 10): 29%; percent inhibition of AR (AR mRNA [2]; 125.0 nM, Table 10): 44%; percent inhibition of AR (AR mRNA [2]; 500.0 nM, Table 10): 77%; percent inhibition of AR (AR mRNA [2]; 1000.0 nM, Table 10): 87%; IC50 (AR mRNA [2]; Table 10): 158 nM
569229 (antisense eG*eT*kT*kG*kA*dT*dT*dT*dA*dA*dT*dG*kG*kT*kT*eG) [compound 569229] | – | – | – | – | – | – | – | 57 | 16 | 14 | 36 | 74 | 84 | 220 | –
569238 (antisense eG*kT*kT*kG*dA*dT*dT*dT*dA*dA*dT*kG*kG*kT*eT*eG) [compound 569238] | – | – | – | – | – | – | – | 51 | 4 | 32 | 33 | 71 | 88 | 202 | –
